The conditions of data set [1]: cited from earlier work.
Data set [2] relates to A549 alveolar epithelial cells. Briefly: alveolar epithelial cell wound repair model (in vitro epithelial wound-healing assay). In kind it is cell-based, human. The following applies: mechanically wounded monolayer, FIG. 4.
Description: In the present studies an alveolar epithelial cells wound repair model was employed. […] Closure of this wound was monitored over 24 hours following treatment.
The wound healing assays were performed utilising A549 alveolar epithelial cells. The epithelial repair activity was determined using an in-vitro epithelial wound-healing assay as described in Example 1 (Geiser T et al. Am J Respir Crit. Care Med. 2001; 163: 1384-1388) using human A549 alveolar epithelial-like cells (American Type Culture Collection, Rockville, Md.). Briefly, A549 epithelial cells were cultured to confluency in 12-well plates for 48 hours in minimal essential medium (MEM) containing 10% fetal bovine serum and then mechanically wounded with a pipette tip. Concentrated BALF from each patient was added to the wounded epithelial monolayers (experiments performed in triplicates) and the area of the wound was measured over a time period of 24 hours.
Data set [3] concerns Transforming Growth Factor (TGF)-β-Connective Tissue Growth Factor (CTGF) interactions via a Rho signalling pathway. Conditions: recent studies, refs 1 and 2; cited from earlier work.

Take `CCC(C)C(=O)OC1CC(C)C=C2C=CC(C)C(CCC3CC(O)CC(=O)O3)C21` (stereo not drawn) [Lovastatin, [8-[2-(4-hydroxy-6-oxo-oxan-2-yl)ethyl]-3,7-dimethyl-1,2,3,7,8,8a-hexahydronaphthalen-1-yl]2-methylbutanoate]: the solubility in acetonitrile entry in data set [1] (acetonitrile) is on record as “sparingly soluble”. In addition, the solubility in ethanol result in data set [1] (ethanol) is given as “sparingly soluble”. Moreover, the solubility in methanol result in data set [1] (methanol) is “sparingly soluble”. Besides, in data set [1] (water), the solubility in water result is “insoluble”.

Turning to `CCC(C)(C)C(=O)O[C@H]1C[C@@H](C)C=C2C=C[C@@H](C)[C@H](CC[C@@H]3C[C@@H](O)CC(=O)O3)[C@H]21` [simvastatin, [(1S,3R,7R,8S,8aR)-8-[2-[(2R,4R)-4-hydroxy-6-oxo-oxan-2-yl]ethyl]-3,7-dimethyl-1,2,3,7,8,8a-hexahydronaphthalen-1 yl]2,2-dimethylbutanoate], the wound closure entry in data set [2] was “improves wound closure”. For the same compound, in data set [3], the “anti-fibrotic potential (TGF-β-CTGF interactions, pro-fibrotic differentiation)” value is “over-riding Transforming Growth Factor (TGF)-β-Connective Tissue Growth Factor (CTGF) interactions”.
